Data reported in US10160812B2, “Bispecific HER2 antibodies” (MedImmune, LLC, priority 2014, dated 2018).

Experiments:
[1] = tested on: NCI-N87 cell; test: Proliferation inhibition assay in serum-containing media; format: cell-based, human
Description: Cell viability was determined using Cell Titer Glo from Promega according to manufacturer's instructions.

[2] = target: HER2 (Homo sapiens, UniProt P04626); details: reported value; read-out: reported affinity of the parent antibody; cited from earlier work

| Molecule | inhibition of cell proliferation [1] | Kd [2] [nM] |
| --- | --- | --- |
| pertuzumab: humanized version of the murine antibody 2C4 that inhibits dimerization of HER2 with other HER receptors [reference compound] | limited activity |  |
| 1.39.1: fully human monoclonal antibody against human HER2, parent of 39S (WO 2008/019290); VH SEQ ID NO:43, VL SEQ ID NO:44 (antibody, V domains shown) VH: EVQLVESGGGLVKPGGSLRLSCAASGFTFSSYSMNWVRQAPGKGLEWVSSISSSSSYIYYADSVKGRFTISRDNAKNSLYLQMNSLRAEDTAVYYCARGGDGYNYYYFDYWGQGTLVTVSS VL: DIVMTQSPDSLAVSLGERATITCKSSQSVFFRSNNKNCLAWYQQRPGQPPNLLIYWASSRESGVPDRFSGSGSGTDFALTISSLQTEDVAVYYCQQYFGSPFTFGPGTKVDIK |  | ~2 |
